Results taken from patent publication US20260234211A1, “POLYPEPTIDE HAVING MODIFIED STRUCTURE AND USE THEREOF” (Guangdong Raynovent Biotech Co., Ltd., priority 2023, published 2026).

Tests used:
[1] = molecular target: T1, GLP-1R (Homo sapiens, UniProt P43220); assay: In vitro GLP-1R agonistic activity test (cAMP, HEK293 cell line); format: cell-based; details: cAMP, HEK293 cells expressing GLP-1R; read-out: GLP-1 EC50
T1 construct: host or cells: HEK293
Method: The cell lines were constructed by Pharmaron Inc. See details in the table below.
The test compounds were diluted at a 5-fold dilution factor in 10 points, starting from an initial concentration of 200 nM.
1) The cell lines were cultured respectively in complete medium at 37° C. and 5% CO2.
1) Eu-cAMP tracer was freeze-thawed and diluted 50 fold with detection buffer; and Ulight-anti-cAMP was freeze-thawed and diluted 150 fold with detection buffer.
3) 10 μL of Eu-cAMP tracer was added and then 10 μL of Uligh-anti-cAMP was added into experimental wells respectively.
4) The reaction plate was centrifuged at 200 g at room temperature for 30 s and left for stand at 25° C. for 1 h.

[2] = Metabolic stability in human kidney S9; format: in vitro ADME; details: Human kidney S9 1 mg/mL, +Cofactors (NADPH & UDPGA), 37° C.
Method: The metabolic stability of the compounds in human kidney was evaluated to determine whether the drugs would be degraded by metabolic enzymes in the kidney to affect the efficacies and pharmacokinetics. 1. Relevant solutions were formulated. 2. a) With cofactors (NADPH & UDPGA): NADPH and UDPGA were added during the incubation. […] H2O was added into the culture solution. The final concentration of KS9 Fractions was 1 mg/mL. The mixture was pre-heated at 37° C. for 10 min. […] In this study, 7-hydroxy-coumarin and Raloxifene were used as the positive control. The final concentration of the positive control compounds was 0.2 μM, and the final concentration of the test compound was 1 μM. The culture solution was incubated in water bath at 37° C. 4. At 0.5, 5, 15, 30 and 60 min, volume aliquots were taken from the reaction solution and the reaction was stopped by adding acetonitrile. The samples were centrifuged for 30 min. The supernatant was taken and mixed with ultrapure water for subsequent LC-MS/MS analysis. 5. Data analysis: All calculation was conducted using Microsoft Excel. Peak areas were determined and slope values were calculated based on the extracted ion chromatograms.

[3] = Pharmacokinetic properties in Cynomolgus macaques; details: cynomolgus monkey, in vivo, male cynomolgus macaques, plasma
Method: To test the pharmacokinetic profiles of the compounds in Cynomolgus macaques.
Non-juvenile male cynomolgus macaques were used for experiment, 3 cynomolgus macaques for each compound. Whole blood was collected at time points of 1 h, 2 h, 4 h, 8 h, 16 h, 24 h, 48 h, 72 h, 120 h, 168 h and 240 h after administration, to prepare plasma. The drug concentration was analyzed by LC-MS/MS method, and the pharmacokinetic parameters were calculated using Phoenix WinNonlin software.

T1 sequence (P43220 24-463, species assumed): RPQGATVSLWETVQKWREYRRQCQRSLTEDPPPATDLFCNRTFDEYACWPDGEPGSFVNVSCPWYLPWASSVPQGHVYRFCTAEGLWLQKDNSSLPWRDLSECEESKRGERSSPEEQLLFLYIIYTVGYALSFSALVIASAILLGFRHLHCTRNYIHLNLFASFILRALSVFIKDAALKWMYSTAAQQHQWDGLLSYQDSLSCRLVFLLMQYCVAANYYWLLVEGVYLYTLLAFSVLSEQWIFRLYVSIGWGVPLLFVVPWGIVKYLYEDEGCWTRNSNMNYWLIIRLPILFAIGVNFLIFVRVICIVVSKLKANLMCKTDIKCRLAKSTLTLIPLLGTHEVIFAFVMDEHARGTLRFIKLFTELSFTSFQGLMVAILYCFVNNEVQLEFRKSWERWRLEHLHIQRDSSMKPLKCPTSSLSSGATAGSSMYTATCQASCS

Structure (SMILES) | EC50 [1] [pM] | microsomal CLint ([2]; read-out: in vitro CLint) [µL/min/mg] | half-life ([2]; read-out: in vitro t1/2) [h] | AUC(0-t) ([3]; read-out: AUC0-240 h) [µM·h] | AUC(0-inf) ([3]; read-out: AUCINF) [µM·h] | Cmax ([3]; read-out: Cmax) [µM] | half-life ([3]; read-out: T1/2 (converted)) [h] | Tmax ([3]; read-out: Tmax) [h]
CC[C@H](C)[C@@H]1NC(=O)[C@H](Cc2ccccc2)NC(=O)[C@@H](NC(=O)C(C)(C)NC(=O)[C@H](CCC(N)=O)NC(=O)[C@H](C)NC(=O)[C@H](CCCCN)NC(=O)[C@H](CCCCN)NC(=O)[C@H](CC(=O)O)NC(=O)[C@H](CC(C)C)NC(=O)[C@](C)(CC(C)C)NC(=O)[C@@H](NC(=O)[C@H](CO)NC(=O)[C@H](Cc2ccc(O)cc2)NC(=O)[C@H](CC(=O)O)NC(=O)[C@H](CO)NC(=O)[C@@H](NC(=O)[C@H](Cc2ccccc2)NC(=O)[C@@H](NC(=O)CNC(=O)[C@H](CCC(N)=O)NC(=O)C(C)(C)NC(=O)[C@@H](N)Cc2ccc(O)cc2)[C@@H](C)O)[C@@H](C)O)[C@@H](C)CC)CCCCNC(=O)CN(C(=O)COCCOCCNC(=O)COCCOCCNC(=O)CC[C@H](NC(=O)CCCCCCCCCCCCCCCCCCC(=O)O)C(=O)O)CC(=O)NCCCC[C@@H](C(=O)NCC(=O)NCC(=O)N2CCC[C@H]2C(=O)N[C@@H](CO)C(=O)N[C@@H](CO)C(=O)NCC(=O)N[C@@H](C)C(=O)N2CCC[C@H]2C(=O)N2CCC[C@H]2C(=O)N2CCC[C@H]2C(=O)N[C@@H](CO)C(N)=O)NC(=O)[C@H](CC(C)C)NC(=O)[C@H](CC(C)C)NC(=O)[C@H](Cc2ccc(O)cc2)NC(=O)[C@H](CCC(=O)O)NC1=O [Example 14, YAibQGT FTSDY SIα- MeLLD KKAQAib ^1KFIEY LLIKGG PSSGA PPPS-NH2 (SEQ ID NO: 20)] | 1 |  |  |  |  |  |  | 
CC[C@H](C)[C@H](NC(=O)[C@H](Cc1ccccc1)NC(=O)[C@@H]1CCCCNC(=O)CN(C(=O)[C@@H](N)CCCCNC(=O)[C@@H](N)CCCCNC(=O)CC[C@H](NC(=O)CCCCCCCCCCCCCCCCCCC(=O)O)C(=O)O)CC(=O)NCCCC[C@H](NC(=O)[C@H](CCCCN)NC(=O)[C@H](CC(=O)O)NC(=O)[C@H](CC(C)C)NC(=O)[C@](C)(CC(C)C)NC(=O)[C@@H](NC(=O)[C@H](CO)NC(=O)[C@H](Cc2ccc(O)cc2)NC(=O)[C@H](CC(=O)O)NC(=O)[C@H](CO)NC(=O)[C@@H](NC(=O)[C@H](Cc2ccccc2)NC(=O)[C@@H](NC(=O)CNC(=O)[C@H](CCC(N)=O)NC(=O)C(C)(C)NC(=O)[C@@H](N)Cc2ccc(O)cc2)[C@@H](C)O)[C@@H](C)O)[C@@H](C)CC)C(=O)N[C@@H](C)C(=O)N[C@@H](CCC(N)=O)C(=O)NC(C)(C)C(=O)N1)C(=O)N[C@@H](CCC(=O)O)C(=O)N[C@@H](Cc1ccc(O)cc1)C(=O)N[C@@H](CC(C)C)C(=O)N[C@@H](CC(C)C)C(=O)N[C@@H](CCC(=O)O)C(=O)NCC(=O)NCC(=O)N1CCC[C@H]1C(=O)N[C@@H](CO)C(=O)N[C@@H](CO)C(=O)NCC(=O)N[C@@H](C)C(=O)N1CCC[C@H]1C(=O)N1CCC[C@H]1C(=O)N1CCC[C@H]1C(=O)N[C@@H](CO)C(N)=O [Example 7, YAibQGT FRSDY SIα- MeLLD K^1KAQAib ^1KFIEY LLEGG PSSGA PPPS-NH2 (SEQ ID NO: 1)] |  | < 3.75 | > 3.08 | 3.32 | 3.96 | 0.0243 | 84.1 | 29.3
